Series [1] relates to C3H10T1/2 adipocytes. As to the kind of experiment: Infrared thermography of thermogenesis in cultured adipocytes (β-AR-agonists). It counts as cell-based. The following applies: for EC50: adipocytes, infrared thermography, dose response, read-out: EC50 (nM) Thermogenesis; for stimulation of thermogenesis: C3H10T1/2 adipocytes. The protocol: (§1) Human subcutaneous adipocytes were purchased from Zen-Bio, Inc. (Research Triangle Park, N.C.). C3H10T1/2 clone 8 fibroblasts were differentiated into adipocytes as previously described (Lenhard et al, Biochem. Pharmacol. 54:801-808 (1997), Paulik and Lenhard, Cell Tissue Res. 290:79-87 (1997)). After 7 days in culture, triglyceride accumulation was determined by adding lipoprotein lipase and GPO-Trinder reagent (assay kit 337-B, Sigma Diagnostics, St. Louis, Mo.) to the cells (50 μl/cm^2) and incubating the lysates at 37° C. for 2 hours. The optical density was measured using a spectrophotometer set at a wavelength of 540 nm. Lipolysis was measured as previously described (Lenhard et al, Biochem. Pharmacol. 54:801-808 (1997)).
Heat generation was measured using a Stirling cooled Agema Thermovision 900 Infrared System AB (Marietta, Ga.) equipped with a SW Scanner and 40°×25° lens which detects a 2-5.4 micron spectral response. […] The focal distance was 6 cm. Images were captured using a recurs function set at 16 or an averaging function set at 32. The data was analyzed using OS-9 advanced systems and ERIKA 2.00 software according to the manufacturer's specifications (FLIR Infrared Systems AB, Danderyd, Sweden). Thermography of adipocytes was performed by maintaining the ambient temperature of the cultured cells at 37±0.02° C. using a Queue Systems Inc. (Parkersburg, W.Va.) incubator, model QWJ500SABA. Spectral analysis of yeast was performed at 30±0.02° C. using the same incubator system. After treating the cells with experimental agents (e.g., rotenone etc.), the temperature was equilibrated for 10 minutes in the incubator before measuring real time thermogenesis for all microtiter plate applications. Various color scales in the visible wavelength were used to depict the temperature fluctuations of the recorded images. Although temperature scales are constant, the color scale images are variable and can be adjusted with level and span controls.
The β3-AR-agonists are candidate therapeutic agents for the treatment of diabetes and obesity. Although, the mechanism of action for these agents is thought to involve increased metabolic rate (Scarpace, Ann. N.Y. Acad. Sci. 813:111-116 (1997)), it has yet to be shown that β-AR-agonists increase heat output by adipocytes. Therefore, it was determined whether infrared imaging could be used to monitor the effects of β-AR-agonists on thermogenesis in cultured adipocytes.
(§2) As a control, the effects of β-AR-agonists on lipolysis was also measured. […] In general, this expands to measuring thermogenic activity of both catabolic and anabolic mediated-effects of potential drug candidates.

Series [2] concerns C3H10T1/2 cells. As to the kind of experiment: Infrared thermography of heat production in differentiating C3H10T1/2 cells (PPARγ agonists). The format is cell-based. The following applies: Mus musculus, C3H 10T1/2, in the presence of insulin and 9-cis retinoic acid (FIG. 7), read-out: EC50(μM), thermogenesis and lipogenesis assays. As to the method:
as §1
Heat generation was measured using a Stirling cooled Agema Thermovision 900 Infrared System AB (Marietta, Ga.) equipped with a SW Scanner and 40°×25° lens which detects a 2-5.4 micron spectral response. […] The focal distance was 6 cm. Images were captured using a recurs function set at 16 or an averaging function set at 32. The data was analyzed using OS-9 advanced systems and ERIKA 2.00 software according to the manufacturer's specifications (FLIR Infrared Systems AB, Danderyd, Sweden). […] Various color scales in the visible wavelength were used to depict the temperature fluctuations of the recorded images. […]

In series [3] the test system is whole back. The series can be described thus: Infrared thermography of drug-induced thermogenesis in humans. It counts as in vivo, human. The following applies: 60 minutes after 0.6-0.7 mg/kg. The protocol:
The effect of ephedrine on thermogenesis in two human subjects was detected by infrared Imaging 60 minutes after treatment with ephedrine at a dose of 0.6-0.7 mg/kg. […] Thus, infrared thermography can be used as a non-invasive surrogate assay to evaluate the efficacy, potency, pharmacokinetics, pharmocodynamics of drugs in clinical studies.

For series [4], the system named is limb inflammation. The series can be described thus: PGPS arthritis model, limb thermogenesis. It counts as in vivo, rat. The protocol: (§3) Male AKR/J, C57BL/6J, and SWR/J mice were purchased from 4-8 weeks of age from Jackson Laboratories (Bar Harbor, Me.). Mice were fed high and low fats diets containing high sucrose as defined by Surwit et al., (Metabolism 44(5):645-651 (1995)). After 14 weeks on these diets, the intrascapular fur was shaved, the animals were dosed (intraperitineal) with 1 mg/kg of BRL37344, and the animals were anesthetized with isofluorane. Nude mice (BALB/C) were 6-8 weeks old and were dosed with inhalant two times before thermal profiling. The Lewis rat strain (200-250 g) were used for both the MED and inflammation experiments. Infrared thermographic images and temperature calculations were recorded using an Agema Thermovision 900 Infrared System.
Arthritis is a disease characterized by inflammation of the joints and can be treated with antiinflammatory agents. Because inflammatory responses are associated with increased thermogenesis at the site of the response, arthritis and the efficacy of arthritis drugs can be monitored by thermography. […] The other limb was not treated. […] Thus, infrared thermography is a useful tool for monitoring inflammatory responses and the efficacy of antiinflammatory agents as well as providing a method for screening, selecting and evaluating the effectiveness of drug candidates for treating arthritic indications.

Series [5] deals with interscapular brown adipose tissue (IBAT). The series can be described thus: IBAT thermogenesis in ob/ob mice, shaved or skin replaced with IR transparent adhesive. The format is in vivo. The following applies: 0.01-1 mg/kg i.g., 1 hour. The protocol: FIG. 28. Interscapular brown adipose tissue (IBAT) thermogenesis in ob/ob mice 1 hour after treatment with the […]-adrenoceptor agonist BRL37344 detected by IR thermography. Ten week old male ob/ob mice (Jackson Labs, Bar Harbor, Me.) were housed 5 animals/cage at 72° F. and 50% relative humidity with a 12 h light and dark cycle. They were fed chow diet (NIH R&M/Auto 6F-Ovals 5K67, PMI Feeds® Inc., Richmond, Ind.) and water ad libitum. Mice were dosed at 0.0, 0.01, 0.1, 0.3, or 1 mg/kg BRL37344 in water vehicle (0.25 mL i.g.; n=20 per dose). All animals were anesthetized with isofluorane and shaved to expose the area of interest prior to IR scanning. […] Images were recorded at 1 min intervals for 5 min with a frame averaging rate of 32 frames/sec. Acquired images were analyzed for average temperatures using an in-house image processing software application (Roboimage). Data are expressed as either average temperature/area or delta temperature/area (drug treated-vehicle treated).
The top panels show IR images of the interscapular regions of mice whose skin was removed and Bioclusive adhesive covering placed over the IBAT or mice who have been shaved only following treatment with BRL37344 at the doses indicated for 1 hour. Quantification of IR signal in the IBAT region is shown in the bottom panel. […]

Series [6] relates to intrascapular region. As to the kind of experiment: Intrascapular thermogenesis in inbred mouse strains on high and low fat diets. The following applies: 1 mg/kg i.p., 60 min. It counts as in vivo, mice. The protocol:
as §3
One environmental component that alters the metabolic rate in individuals with a genetic predisposition towards diabetes, dyslipidemia, or obesity is diet. It was unknown if thermography could be used to measure the effects of diet on drug-induced changes in heat production in animals with different genotypes. Thus, three different inbred strains of mice, AKR/J, C57BL/6J, and SWR/J, were maintained on high and low fat diets for 14 weeks before treating with the β3-adrenoceptor agonist, BRL37344. The heat produced in the intrascapular region was measured before and after 60 min treatment using infrared thermography. […] Thus, this technique may be used to select, rank order for the efficacy and potency of compounds with the, desired properties for a given environment or genetic background. Similarly, this technique can be used to identify, rank, and select animals and environmental factors with the desired properties for a given drug candidate.

For series [7], the system named is human adipocytes. As to the kind of experiment: Infrared thermography of human adipocytes in 96-well plates. It counts as cell-based. The following applies: dose response, relative to untreated cells.
Protocol: Heat generation was measured using a Stirling cooled Agema Thermovision 900 Infrared System AB (Marietta, Ga.) equipped with a SW Scanner and 40°×25° lens which detects a 2-5.4 micron spectral response. […] The focal distance was 6 cm. Images were captured using a recurs function set at 16 or an averaging function set at 32. The data was analyzed using OS-9 advanced systems and ERIKA 2.00 software according to the manufacturer's specifications (FLIR Infrared Systems AB, Danderyd, Sweden). Thermography of adipocytes was performed by maintaining the ambient temperature of the cultured cells at 37±0.02° C. using a Queue Systems Inc. (Parkersburg, W.Va.) incubator, model QWJ500SABA. […] After treating the cells with experimental agents (e.g., rotenone etc.), the temperature was equilibrated for 10 minutes in the incubator before measuring real time thermogenesis for all microtiter plate applications. Various color scales in the visible wavelength were used to depict the temperature fluctuations of the recorded images. Although temperature scales are constant, the color scale images are variable and can be adjusted with level and span controls.
Series [8] has as its system yeast. The format is cell-based.
Protocol: Heat generation was measured using a Stirling cooled Agema Thermovision 900 Infrared System AB (Marietta, Ga.) equipped with a SW Scanner and 40°×25° lens which detects a 2-5.4 micron spectral response. […] The focal distance was 6 cm. Images were captured using a recurs function set at 16 or an averaging function set at 32. The data was analyzed using OS-9 advanced systems and ERIKA 2.00 software according to the manufacturer's specifications (FLIR Infrared Systems AB, Danderyd, Sweden). […] Spectral analysis of yeast was performed at 30±0.02° C. using the same incubator system. After treating the cells with experimental agents (e.g., rotenone etc.), the temperature was equilibrated for 10 minutes in the incubator before measuring real time thermogenesis for all microtiter plate applications. Various color scales in the visible wavelength were used to depict the temperature fluctuations of the recorded images. Although temperature scales are constant, the color scale images are variable and can be adjusted with level and span controls.
Series [9] has as its system C3H10T1/2 adipocytes. As to the kind of experiment: Lipolysis in adipocytes treated with β-AR-agonists. The format is cell-based. The following applies: adipocytes, dose response; read-out: EC50 (nM) Lipolysis. The protocol: as §1, §2

Regarding `C[C@@H]1C[C@@H]([C@H](O)CC2CC(=O)NC(=O)C2)C(=O)[C@@H](C)C1` [cycloheximide], the “effect on β3-AR-mediated thermogenesis” value in [1] (100 μM) is “had no effect”.
As for `O=C1NC(=O)C(Cc2ccc3c(c2)CC[C@H](Cc2ccccc2)O3)S1` (stereo partly shown) [englitazone], the 50% effective concentration (EC50) in series [2] was greater than 10 µM.
Consider `CN[C@@H](C)[C@H](O)c1ccccc1` [ephedrine], for which the “Delta T” value in [3] (subject A) is 0.63 °C; in [3] (subject B) it was 0.46 °C.
As to `C[C@]12C=CC(=O)C=C1CC[C@@H]1[C@@H]2[C@@H](O)C[C@@]2(C)[C@H]1CC[C@]2(O)C(=O)CO` [prednisolone], the “thermogenesis of arthritic limb after treatment” value in series [4] (PGPS arthritis model, 6 mg/kg p.o.) is given as “reverses the elevation in thermogenesis”.
`C[C@H](Cc1ccc(OCC(=O)O)cc1)NC[C@H](O)c1cccc(Cl)c1` [BRL37344]: the IBAT thermogenesis entry is “thermogenesis increased” in [5] (shaved only); “demonstrate a dose-response” in series [5] (skin removed (peelback) and Bioclusive adhesive). The “thermogenic response, high vs low fat diet” value was “greater thermogenic response to BRL37344 when fed the higher fat diet” in series [6] (AKR/J mice (obesity prone)), “little difference in the thermogenic response” in series [6] (C57BL/6J mice) and “greater thermogenic response when fed the lower fat diet” in [6] (SWR/J mice (obesity resistant)).
`N#CC(C#N)=NNc1ccc(OC(F)(F)F)cc1` [FCCP, carbonyl cyanide p-(trifluoromethoxy)phenylhydrazone]: the “thermogenesis in human adipocytes” value in [7] is given as “stimulated heat production”. The thermogenesis in yeast entry in [8] is recorded as “stimulated heat production”.
On to `CC[C@H]1/C=C/C=C/C[C@@H](C)[C@H](O)[C@@](C)(O)C(=O)[C@@H](C)[C@H](O)[C@@H](C)C(=O)[C@@H](C)[C@H](O)[C@@H](C)/C=C/C(=O)O[C@@H]2[C@H](C)[C@H](CC1)O[C@]1(CC[C@H](C)[C@H](C[C@@H](C)O)O1)[C@H]2C` [Oligomycin], for which the EC50 in [1] (Mus musculus, C3H 10T1/2) was 9.2 nM.
Take `COc1ccc(CCNCC(O)COc2ccc(O)c(O)c2)cc1OC` (stereo not shown) [RO363]: in series [1], the stimulation of thermogenesis result is “less effective than CL316243 or isoproterenol” and the EC50 is 956 nM. The EC50 in [9] is 1000 nM.
For the molecule peptidoglycan polysaccharide [PGPS], in [4] (limb injected for two weeks), the “thermogenesis of injected limb vs untreated limb” value was “higher level of thermogenesis in the treated limb than in the untreated limb”.
For `C[C@H](Cc1ccc2c(c1)OC(C(=O)[O-])(C(=O)[O-])O2)NC[C@H](O)c1cccc(Cl)c1.[Na+].[Na+]` [CL316253], the “thermogenesis versus treatment time” value in series [1] (15 min vs 18 hours treatment) is “greater after 15 min than after 18 hours”. Also, in series [1], the stimulation of thermogenesis entry was “stimulated” and the EC50 came out at 8.9 nM. The “dose dependence of thermogenic effect” value in series [1] (dose range 0.8-100 nM) is reported as “dose dependent thermogenic effect”. Besides, the EC50 in series [9] stood at 7.9 nM.

The record behind these values is patent publication US6881584B1, “Infrared thermography” (SmithKline Beecham Corporation, priority 1998, dated 2005).
